The structures appear in SMILES notation. pEC50: −log10 of the molar value.

The test is filed under the species Rattus norvegicus. Kind of test: Effective concentration for relaxation of isolated rat aortic strips, submaximally contracted with phenylephrine at 0.1 uM was determined. The class given is functional. The conditions noted are these: Aorta.

Usually pEC50 stands for −log10 of the EC50, conventionally taken in molar units. Lower therefore signals a high EC50. In the case of `O=[N+]([O-])OCC(CO[N+](=O)[O-])O[N+](=O)[O-]` [NITROGLYCERIN], the negative logarithm of the EC50 (pEC50) is 5.72.

Source of the values: ChEMBL document CHEMBL1135873, “Neuroprotection against ischemic brain injury conferred by a novel nitrate ester” (Bioorg Med Chem Lett, 2002).
